# Reference: PubChem BioAssay AID2060489 (Molecular Pharmacology Branch, DTP, NCI, 2025)
# System: 922993-354-T-J3-PDC complex spheroids, viability
# Experiment: Anticancer human tumor 922993-354-T-J3-PDC patient-derived endometrial carcinoma cell line growth inhibition [GQUAD]
# Settings: for IC50: curve of first compound; for viability, T/C: stronger effect = lower value
# Summary of the method: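 Viability of tumor cells grown as complex spheroids with endothelial and stromal cells, exposed to drug combinations. Top concentration at or near clinical Cmax (else 10 microM), diluted in half-log increments.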
# [1] = second compound 0.0316 µM, first compound 0.0316 µM
# [2] = second compound 0.0316 µM, first compound 0.1 µM
# [3] = second compound 0.0316 µM, first compound 0.316 µM
# [4] = second compound 0.0316 µM, first compound 1 µM
# [5] = second compound 0.0316 µM, first compound 3.16 µM
# [6] = second compound 0.0316 µM, first compound 10 µM
# [7] = second compound 0.1 µM, first compound 0.0316 µM
# [8] = second compound 0.1 µM, first compound 0.1 µM
# [9] = second compound 0.1 µM, first compound 0.316 µM
# [10] = second compound 0.1 µM, first compound 1 µM
# [11] = second compound 0.1 µM, first compound 3.16 µM
# [12] = second compound 0.1 µM, first compound 10 µM
# [13] = second compound 0.316 µM, first compound 0.0316 µM
# [14] = second compound 0.316 µM, first compound 0.1 µM
# [15] = second compound 0.316 µM, first compound 0.316 µM
# [16] = second compound 0.316 µM, first compound 1 µM
# [17] = second compound 0.316 µM, first compound 3.16 µM
# [18] = second compound 0.316 µM, first compound 10 µM
# [19] = second compound 1 µM, first compound 0.0316 µM
# [20] = second compound 1 µM, first compound 0.1 µM
# [21] = second compound 1 µM, first compound 0.316 µM
# [22] = second compound 1 µM, first compound 1 µM
# [23] = second compound 1 µM, first compound 3.16 µM
# [24] = second compound 1 µM, first compound 10 µM
# [25] = second compound 3.16 µM, first compound 0.0316 µM
# [26] = second compound 3.16 µM, first compound 0.1 µM
# [27] = second compound 3.16 µM, first compound 0.316 µM
# [28] = second compound 3.16 µM, first compound 1 µM
# [29] = second compound 3.16 µM, first compound 3.16 µM
# [30] = second compound 3.16 µM, first compound 10 µM
# [31] = second compound 10 µM, first compound 0.0316 µM
# [32] = second compound 10 µM, first compound 0.1 µM
# [33] = second compound 10 µM, first compound 0.316 µM
# [34] = second compound 10 µM, first compound 1 µM
# [35] = second compound 10 µM, first compound 3.16 µM
# [36] = second compound 10 µM, first compound 10 µM
# [37] = second compound 0.0316 µM, first compound 0.000999 µM
# [38] = second compound 0.0316 µM, first compound 0.00316 µM
# [39] = second compound 0.0316 µM, first compound 0.00999 µM
# [40] = second compound 0.0316 µM, first compound 0.0999 µM
# [41] = second compound 0.1 µM, first compound 0.000999 µM
# [42] = second compound 0.1 µM, first compound 0.00316 µM
# [43] = second compound 0.1 µM, first compound 0.00999 µM
# [44] = second compound 0.1 µM, first compound 0.0999 µM
# [45] = second compound 0.316 µM, first compound 0.000999 µM
# [46] = second compound 0.316 µM, first compound 0.00316 µM
# [47] = second compound 0.316 µM, first compound 0.00999 µM
# [48] = second compound 0.316 µM, first compound 0.0999 µM
# [49] = second compound 1 µM, first compound 0.000999 µM
# [50] = second compound 1 µM, first compound 0.00316 µM
# [51] = second compound 1 µM, first compound 0.00999 µM
# [52] = second compound 1 µM, first compound 0.0999 µM
# [53] = second compound 3.16 µM, first compound 0.000999 µM
# [54] = second compound 3.16 µM, first compound 0.00316 µM
# [55] = second compound 3.16 µM, first compound 0.00999 µM
# [56] = second compound 3.16 µM, first compound 0.0999 µM
# [57] = second compound 10 µM, first compound 0.000999 µM
# [58] = second compound 10 µM, first compound 0.00316 µM
# [59] = second compound 10 µM, first compound 0.00999 µM
# [60] = second compound 10 µM, first compound 0.0999 µM
# 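Also: spheroids exposed to compounds for seven days.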
# 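For viability, T/C in this document: 100% = DMSO vehicle control viability.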
compound,measurement,setting,value
C=CC(=O)N1CCN(c2nc(=O)n(-c3c(C)ccnc3C(C)C)c3nc(-c4c(O)cccc4F)c(F)cc23)C(C)C1 (stereo not drawn) + CN(C)c1ccc(Nc2c3ccc(NC(=O)CCN4CCCC4)cc3nc3cc(NC(=O)CCN4CCCC4)ccc23)cc1,IC50,second compound 0.0316 µM,> 10000 nM
same,IC50,second compound 0.1 µM,> 10000 nM
same,IC50,second compound 0.316 µM,> 10000 nM
same,IC50,second compound 1 µM,> 10000 nM
same,IC50,second compound 3.16 µM,> 10000 nM
same,IC50,second compound 10 µM,> 10000 nM
same,"viability, T/C",[1],96.9%
same,"viability, T/C",[2],84.8%
same,"viability, T/C",[3],102%
same,"viability, T/C",[4],104%
same,"viability, T/C",[5],97%
same,"viability, T/C",[6],119%
same,"viability, T/C",[7],109%
same,"viability, T/C",[8],109%
same,"viability, T/C",[9],112%
same,"viability, T/C",[10],94.5%
same,"viability, T/C",[11],128%
same,"viability, T/C",[12],109%
same,"viability, T/C",[13],112%
same,"viability, T/C",[14],120%
same,"viability, T/C",[15],96.7%
same,"viability, T/C",[16],128%
same,"viability, T/C",[17],103%
same,"viability, T/C",[18],104%
same,"viability, T/C",[19],111%
same,"viability, T/C",[20],118%
same,"viability, T/C",[21],99.6%
same,"viability, T/C",[22],125%
same,"viability, T/C",[23],117%
same,"viability, T/C",[24],120%
same,"viability, T/C",[25],107%
same,"viability, T/C",[26],128%
same,"viability, T/C",[27],107%
same,"viability, T/C",[28],139%
same,"viability, T/C",[29],137%
same,"viability, T/C",[30],117%
same,"viability, T/C",[31],115%
same,"viability, T/C",[32],140%
same,"viability, T/C",[33],142%
same,"viability, T/C",[34],137%
same,"viability, T/C",[35],153%
same,"viability, T/C",[36],142%
CC[C@@]1(O)C(=O)OCc2c1cc1n(c2=O)Cc2cc3c(CN(C)C)c(O)ccc3nc2-1 + CN(C)c1ccc(Nc2c3ccc(NC(=O)CCN4CCCC4)cc3nc3cc(NC(=O)CCN4CCCC4)ccc23)cc1,IC50,second compound 0.0316 µM,279 nM
same,IC50,second compound 0.1 µM,> 316 nM
same,IC50,second compound 0.316 µM,286 nM
same,IC50,second compound 1 µM,265 nM
same,IC50,second compound 3.16 µM,302 nM
same,IC50,second compound 10 µM,> 316 nM
same,"viability, T/C",[37],100%
same,"viability, T/C",[38],74.3%
same,"viability, T/C",[39],99.8%
same,"viability, T/C",[1],91.9%
same,"viability, T/C",[40],77.3%
same,"viability, T/C",[3],46.6%
same,"viability, T/C",[41],120%
same,"viability, T/C",[42],110%
same,"viability, T/C",[43],89.3%
same,"viability, T/C",[7],82.7%
same,"viability, T/C",[44],88.9%
same,"viability, T/C",[9],43.4%
same,"viability, T/C",[45],90.5%
same,"viability, T/C",[46],98.4%
same,"viability, T/C",[47],79.2%
same,"viability, T/C",[13],84%
same,"viability, T/C",[48],92.5%
same,"viability, T/C",[15],46.2%
same,"viability, T/C",[49],100%
same,"viability, T/C",[50],106%
same,"viability, T/C",[51],97.7%
same,"viability, T/C",[19],94.5%
same,"viability, T/C",[52],76.8%
same,"viability, T/C",[21],45.1%
same,"viability, T/C",[53],101%
same,"viability, T/C",[54],109%
same,"viability, T/C",[55],99.6%
same,"viability, T/C",[25],117%
same,"viability, T/C",[56],115%
same,"viability, T/C",[27],47.6%
same,"viability, T/C",[57],109%
same,"viability, T/C",[58],115%
same,"viability, T/C",[59],110%
same,"viability, T/C",[31],97.3%
same,"viability, T/C",[60],115%
same,"viability, T/C",[33],59.4%
Cc1cccc(N(C)C(=O)C2C(O)CCN2c2nc(C)cc(C(F)(F)F)c2C#N)c1 (stereo not drawn) + CN(C)c1ccc(Nc2c3ccc(NC(=O)CCN4CCCC4)cc3nc3cc(NC(=O)CCN4CCCC4)ccc23)cc1,IC50,second compound 0.0316 µM,> 10000 nM
same,IC50,second compound 0.1 µM,> 10000 nM
same,IC50,second compound 0.316 µM,> 10000 nM
same,IC50,second compound 1 µM,> 10000 nM
same,IC50,second compound 3.16 µM,> 10000 nM
same,IC50,second compound 10 µM,> 10000 nM
same,"viability, T/C",[1],80.8%
same,"viability, T/C",[2],89.6%
same,"viability, T/C",[3],80.6%
same,"viability, T/C",[4],92.5%
same,"viability, T/C",[5],90.1%
same,"viability, T/C",[6],95.4%
same,"viability, T/C",[7],89.6%
same,"viability, T/C",[8],111%
same,"viability, T/C",[9],87.5%
same,"viability, T/C",[10],103%
same,"viability, T/C",[11],94.9%
same,"viability, T/C",[12],67.6%
same,"viability, T/C",[13],90.4%
same,"viability, T/C",[14],105%
same,"viability, T/C",[15],95.5%
same,"viability, T/C",[16],91.8%
same,"viability, T/C",[17],83.2%
same,"viability, T/C",[18],69.6%
same,"viability, T/C",[19],85.3%
same,"viability, T/C",[20],82.7%
same,"viability, T/C",[21],101%
same,"viability, T/C",[22],93.6%
same,"viability, T/C",[23],97.1%
same,"viability, T/C",[24],82.1%
same,"viability, T/C",[25],96.8%
same,"viability, T/C",[26],102%
same,"viability, T/C",[27],104%
same,"viability, T/C",[28],106%
same,"viability, T/C",[29],99.3%
same,"viability, T/C",[30],91.5%
same,"viability, T/C",[31],105%
same,"viability, T/C",[32],133%
same,"viability, T/C",[33],113%
same,"viability, T/C",[34],106%
same,"viability, T/C",[35],103%
same,"viability, T/C",[36],80.3%
Cn1ncnc1[C@H]1c2n[nH]c(=O)c3cc(F)cc(c23)N[C@@H]1c1ccc(F)cc1 + CN(C)c1ccc(Nc2c3ccc(NC(=O)CCN4CCCC4)cc3nc3cc(NC(=O)CCN4CCCC4)ccc23)cc1,IC50,second compound 0.0316 µM,> 316 nM
same,IC50,second compound 0.1 µM,> 316 nM
same,IC50,second compound 0.316 µM,222 nM
same,IC50,second compound 1 µM,> 316 nM
same,IC50,second compound 3.16 µM,> 316 nM
same,IC50,second compound 10 µM,> 316 nM
same,"viability, T/C",[37],98.4%
same,"viability, T/C",[38],83.2%
same,"viability, T/C",[39],68.9%
same,"viability, T/C",[1],79.6%
same,"viability, T/C",[40],95.2%
same,"viability, T/C",[3],60.4%
same,"viability, T/C",[41],111%
same,"viability, T/C",[42],93.7%
same,"viability, T/C",[43],98.1%
same,"viability, T/C",[7],90.1%
same,"viability, T/C",[44],91.8%
same,"viability, T/C",[9],55.4%
same,"viability, T/C",[45],97.4%
same,"viability, T/C",[46],85.7%
same,"viability, T/C",[47],91.7%
same,"viability, T/C",[13],111%
same,"viability, T/C",[48],84.4%
same,"viability, T/C",[15],34.7%
same,"viability, T/C",[49],93.6%
same,"viability, T/C",[50],108%
same,"viability, T/C",[51],96%
same,"viability, T/C",[19],92.1%
same,"viability, T/C",[52],109%
same,"viability, T/C",[21],60.1%
same,"viability, T/C",[53],78%
same,"viability, T/C",[54],83.5%
same,"viability, T/C",[55],109%
same,"viability, T/C",[25],106%
same,"viability, T/C",[56],105%
same,"viability, T/C",[27],72.2%
same,"viability, T/C",[57],108%
same,"viability, T/C",[58],118%
same,"viability, T/C",[59],123%
same,"viability, T/C",[31],107%
same,"viability, T/C",[60],98.5%
same,"viability, T/C",[33],83%
